Test results from article PMC11971462, “Generation and validation of a novel multitarget small molecule in glioblastoma” (Cell Death & Disease, 2025).

Tested on: GNS166 cells
Test: Label-free proteomics differential expression
Assay type: cell-based, human
Protocol: Proteomic studies were performed by the Proteomics Facility of the CIC bioGUNE by label-free relative quantification on nLC MS/MS. […] In both approaches, the top 20 enriched terms were plotted and the pathways were clustered using divisive hierarchical clustering based on pairwise Jaccard distances.

`C#CCN(Cc1cc2cc(OCCCN3CCCCC3)ccc2n1S(=O)(=O)c1ccccc1)C(=O)CCCCCCC(=O)NO` [DDI] was tested, and the “Direction ANR52_HUMAN” value (protein Q8NB46) was “Down”, the “LogFC ANR52_HUMAN” value (protein Q8NB46) was -3.184 and the “Direction TTC13_HUMAN” value (protein Q8NBP0) was “Down”. The “LogFC TTC13_HUMAN” value (protein Q8NBP0) was -1.381, the “LogFC KMT2C_HUMAN” value (protein Q8NEZ4 GN=KMT2C) was 0.407 and the “LogFC PLBL2_HUMAN” value (protein Q8NHP8 GN=PLBD2) was 1.378. The “LogFC NEDD1_HUMAN” value (protein Q8NHV4 GN=NEDD1) was 0.5958, the “LogFC SMRC2_HUMAN” value (protein Q8TAQ2 GN=SMARCC2) was -0.7509 and the “LogFC CX038_HUMAN” value (protein Q8TB03 GN=CXorf38) was 1.347. For the same compound, the “LogFC GDAP1_HUMAN” value (protein Q8TB36 GN=GDAP1) was 1.874, the “Direction CIP2A_HUMAN” value (protein Q8TCG1) was “Down” and the “LogFC CIP2A_HUMAN” value (protein Q8TCG1) was -1.2095. For the same compound, the “LogFC DDX54_HUMAN” value (protein Q8TDD1 GN=DDX54) was -1.067, the “Direction DTD1_HUMAN” value (protein Q8TEA8) was “Down” and the “LogFC DTD1_HUMAN” value (protein Q8TEA8) was -0.5287. The “LogFC PPIL4_HUMAN” value (protein Q8WUA2 GN=PPIL4) was -1.325, the “Direction LMBR1_HUMAN” value (protein Q8WVP7) was “Down” and the “LogFC LMBR1_HUMAN” value (protein Q8WVP7) was -0.9571. For the same compound, the “LogFC FACR1_HUMAN” value (protein Q8WVX9 GN=FAR1) was 0.64, the “LogFC UBCP1_HUMAN” value (protein Q8WVY7 GN=UBLCP1) was 1.245 and the “Direction ATX2L_HUMAN” value (protein Q8WWM7) was “Down”. The “LogFC ATX2L_HUMAN” value (protein Q8WWM7) was -0.7543, the “Direction PHIP_HUMAN” value (protein Q8WWQ0) was “Down” and the “LogFC PHIP_HUMAN” value (protein Q8WWQ0) was -2.692. For the same compound, the “Direction NELFB_HUMAN” value (protein Q8WX92) was “Down”, the “LogFC NELFB_HUMAN” value (protein Q8WX92) was -0.7153 and the “Direction ATLA1_HUMAN” value (protein Q8WXF7) was “Down”. The “LogFC ATLA1_HUMAN” value (protein Q8WXF7) was -1.239, the “Direction CND3_HUMAN” value (protein Q9BPX3) was “Down” and the “LogFC CND3_HUMAN” value (protein Q9BPX3) was -1.5744. The “Direction FSP1_HUMAN” value (protein Q9BRQ8) was “Down”, the “LogFC FSP1_HUMAN” value (protein Q9BRQ8) was -0.8531 and the “Direction GCP2_HUMAN” value (protein Q9BSJ2) was “Down”. The “LogFC GCP2_HUMAN” value (protein Q9BSJ2) was -1.427, the “LogFC P4K2A_HUMAN” value (protein Q9BTU6 GN=PI4K2A) was 1.541 and the “LogFC TMM43_HUMAN” value (protein Q9BTV4 GN=TMEM43) was -0.7287. For the same compound, the “LogFC MKNK1_HUMAN” value (protein Q9BUB5 GN=MKNK1) was 1.242, the “LogFC TBB2B_HUMAN” value (protein Q9BVA1 GN=TUBB2B) was 1.2351 and the “Direction PBDC1_HUMAN” value (protein Q9BVG4) was “Down”. The “LogFC PBDC1_HUMAN” value (protein Q9BVG4) was -0.9108, the “Direction KIFC1_HUMAN” value (protein Q9BW19) was “Down” and the “LogFC KIFC1_HUMAN” value (protein Q9BW19) was -4.377. For the same compound, the “Direction NADAP_HUMAN” value (protein Q9BWU0) was “Down”, the “LogFC NADAP_HUMAN” value (protein Q9BWU0) was -0.9102 and the “Direction LS14B_HUMAN” value (protein Q9BX40) was “Down”. For the same compound, the “LogFC LS14B_HUMAN” value (protein Q9BX40) was -1.3017, the “Direction NUSAP_HUMAN” value (protein Q9BXS6) was “Down” and the “LogFC NUSAP_HUMAN” value (protein Q9BXS6) was -2.873. For the same compound, the “Direction EIF2A_HUMAN” value (protein Q9BY44) was “Down”, the “LogFC EIF2A_HUMAN” value (protein Q9BY44) was -0.2917 and the “LogFC PDIP3_HUMAN” value (protein Q9BY77 GN=POLDIP3) was -0.8716. The “LogFC GNB1L_HUMAN” value (protein Q9BYB4 GN=GNB1L) was 2.567, the “LogFC PAR6B_HUMAN” value (protein Q9BYG5 GN=PARD6B) was 1.231 and the “LogFC ARL6_HUMAN” value (protein Q9H0F7 GN=ARL6) was 2.762. The “Direction RGAP1_HUMAN” value (protein Q9H0H5) was “Down”, the “LogFC RGAP1_HUMAN” value (protein Q9H0H5) was -3.033 and the “Direction SMG9_HUMAN” value (protein Q9H0W8) was “Down”. The “LogFC SMG9_HUMAN” value (protein Q9H0W8) was -1.751, the “Direction YTDC2_HUMAN” value (protein Q9H6S0) was “Down” and the “LogFC YTDC2_HUMAN” value (protein Q9H6S0) was -1.289. The “LogFC ANKZ1_HUMAN” value (protein Q9H8Y5 GN=ANKZF1) was 2.2814, the “LogFC EHMT1_HUMAN” value (protein Q9H9B1 GN=EHMT1) was -1.629 and the “Direction EHD4_HUMAN” value (protein Q9H223) was “Down”. For the same compound, the “LogFC EHD4_HUMAN” value (protein Q9H223) was -0.4023, the “LogFC FN3K_HUMAN” value (protein Q9H479 GN=FN3K) was -1.71 and the “Direction HEAT1_HUMAN” value (protein Q9H583) was “Down”. The “LogFC HEAT1_HUMAN” value (protein Q9H583) was -0.4862, the “Direction PHAX_HUMAN” value (protein Q9H814) was “Down” and the “LogFC PHAX_HUMAN” value (protein Q9H814) was -0.7063. The “LogFC NT5D2_HUMAN” value (protein Q9H857 GN=NT5DC2) was 0.9697, the “Direction ZWILC_HUMAN” value (protein Q9H900) was “Down” and the “LogFC ZWILC_HUMAN” value (protein Q9H900) was -1.417. For the same compound, the “LogFC QTRT2_HUMAN” value (protein Q9H974 GN=QTRT2) was -0.9473, the “LogFC WDR54_HUMAN” value (protein Q9H977 GN=WDR54) was 2.021 and the “LogFC ARMT1_HUMAN” value (protein Q9H993 GN=ARMT1) was 1.113. For the same compound, the “LogFC KT3K_HUMAN” value (protein Q9HA64 GN=FN3KRP) was 0.7505, the “Direction TM165_HUMAN” value (protein Q9HC07) was “Down” and the “LogFC TM165_HUMAN” value (protein Q9HC07) was -0.8409. For the same compound, the “Direction CWC22_HUMAN” value (protein Q9HCG8) was “Down”, the “LogFC CWC22_HUMAN” value (protein Q9HCG8) was -0.5601 and the “LogFC VAT1L_HUMAN” value (protein Q9HCJ6 GN=VAT1L) was 1.2681. The “Direction RM47_HUMAN” value (protein Q9HD33) was “Down”, the “LogFC RM47_HUMAN” value (protein Q9HD33) was -0.8741 and the “Direction TM9S3_HUMAN” value (protein Q9HD45) was “Down”. The “LogFC TM9S3_HUMAN” value (protein Q9HD45) was -0.5879, the “Direction HM20A_HUMAN” value (protein Q9NP66) was “Down” and the “LogFC HM20A_HUMAN” value (protein Q9NP66) was -1.261. The “LogFC TNR12_HUMAN” value (protein Q9NP84 GN=TNFRSF12A) was -2.0106, the “Direction LUC7L_HUMAN” value (protein Q9NQ29) was “Down” and the “LogFC LUC7L_HUMAN” value (protein Q9NQ29) was -0.6796. The “Direction SSF1_HUMAN” value (protein Q9NQ55) was “Down”, the “LogFC SSF1_HUMAN” value (protein Q9NQ55) was -1.815 and the “LogFC CL004_HUMAN” value (protein Q9NQ89 GN=C12orf4) was 1.057. For the same compound, the “LogFC ITM2C_HUMAN” value (protein Q9NQX7 GN=ITM2C) was 1.931, the “LogFC DBLOH_HUMAN” value (protein Q9NR28 GN=DIABLO) was 1.0021 and the “LogFC DDX21_HUMAN” value (protein Q9NR30 GN=DDX21) was -1.5607. For the same compound, the “LogFC HEBP1_HUMAN” value (protein Q9NRV9 GN=HEBP1) was 1.384, the “Direction ABC3C_HUMAN” value (protein Q9NRW3) was “Down” and the “LogFC ABC3C_HUMAN” value (protein Q9NRW3) was -0.8611. The “Direction LANC2_HUMAN” value (protein Q9NS86) was “Down”, the “LogFC LANC2_HUMAN” value (protein Q9NS86) was -1.981 and the “LogFC HOME3_HUMAN” value (protein Q9NSC5 GN=HOMER3) was 1.625. For the same compound, the “Direction F207A_HUMAN” value (protein Q9NSI2) was “Down”, the “LogFC F207A_HUMAN” value (protein Q9NSI2) was -1.761 and the “LogFC DIAP3_HUMAN” value (protein Q9NSV4 GN=DIAPH3) was -2.473. The “Direction SMC4_HUMAN” value (protein Q9NTJ3) was “Down”, the “LogFC SMC4_HUMAN” value (protein Q9NTJ3) was -1.4105 and the “Direction TYDP1_HUMAN” value (protein Q9NUW8) was “Down”. For the same compound, the “LogFC TYDP1_HUMAN” value (protein Q9NUW8) was -1.1128, the “Direction FANCI_HUMAN” value (protein Q9NVI1) was “Down” and the “LogFC FANCI_HUMAN” value (protein Q9NVI1) was -3.564. For the same compound, the “Direction EVA1B_HUMAN” value (protein Q9NVM1) was “Down”, the “LogFC EVA1B_HUMAN” value (protein Q9NVM1) was -3.511 and the “Direction THG1_HUMAN” value (protein Q9NWX6) was “Down”.
